Read-outs that look alike come from different tables or passages of the source.
Assays:
[1] = test system: Moorslede soil; test: In soil nitrification inhibition assay, Moorslede soil; settings: for inhibition at 50 µM / inhibition at 20 µM / inhibition at 5 µM: soil
Method: Top layer (0 to 10 cm) soil samples were collected from different fields in Belgium (Merelbeke and Moorslede). Vegetation on the field trial was removed and samples were taken from different plots. All soil samples were mixed and sieved (mesh size 2.8 mm) to filter large debris and homogenize soil. The soil was stored at 5° C. in plastic containers covered with Saran foil to prevent changes in microbial community composition and to maintain the original soil water content.
Soil water content was determined by drying 20 g soil for 48 h in a 60° C. oven and measuring weight before and after drying. Based on the soil water content (±20%), compound solutions were prepared so that addition of 200 μl compound and 200 μl NH4Cl solution would result in a final compound concentration of 50 μM and a final NH4^+ concentration of 10 mM. Per treatment, 5 small pots were filled with 20 g soil. Next, the soil was treated first with the respective compound solution and then with the NH4Cl solution. Per tray, positive (50 μM DMP) and negative controls (DMSO) were included. Pots were incubated at 21° C. (6 a.m. to 10 p.m. light) for 7 days. Demineralized water was added to the soil every 2 to 3 days to a soil weight of 20 g. In the end, each sample of 20 g soil was dissolved in 100 ml 1M KCl and shaken for 1 hour, followed by filtration through Whatmann® paper. The filtrate was used to measure pH, NH4^+ and NO3− concentrations.
A set of examples was tested in the same conditions (Moorslede soil, 3 days of incubation) at a concentration of 50 μM.
Another set of examples was tested in different concentrations in Moorslede soil as well, and were sampled after 5 days.
The effect of 3H-1,3-thiazole-2-thione was tested in soil in accordance with the test described above in section 3.3.

[2] = test system: NH3 or NH2OH oxidation in N. europaea cells; test: Nitrosomonas europaea ammonia vs. hydroxylamine oxidation assay; assay type: cell-based; settings: compounds 50 μM, NO2- after 30 min; for Nitrification from NH2OH (% compared to DMSO): 1 mM NH2OH as N-source; for Nitrification from NH3 (% compared to DMSO): NH4+ 1 mM as N-source
Method: Two days old, late-log phase cultures with a NO2− concentration between 10 and 20 mM were washed 3 times in fresh growth medium (without N) and finally 4 times overconcentrated via centrifugation (4000 rpm, 15 min, 4° C.). Transparent, flat bottom 96-well plate (Cat. No. 353072, Falcon® 96 Well Clear Flat Bottom Microplate, Corning®) were filled with 150 μl culture per well using a dispenser (Multidrop™ Combi Reagent Dispenser, Thermo Scientific™). Compounds (final concentration 50 μM) were added in triplicate to the multi-well plate by use of a Tecan robot (Freedom EVO®, Tecan). Thiourea (positive control for inhibition of NH3 oxidation—final concentration 100 μM) and phenylhydrazine hydrochloride (positive control for inhibition of NH2OH oxidation—final concentration 1 mM) were added to the outer two columns. Each plate was made in duplicate to add either 500 μM (NH4)2SO4 (final [NH4+]=1 mM) or 1 mM NH2OH. All plates were separately wrapped in Parafilm. Stacks of 4 plates were put on top of a 96-well plate filled with 100 μl MilliQ per well, covered with aluminum foil and shaken (±150 rpm) at 28° C. To prevent read-out of secondary effects on NO2− production, NO2− was measured only 30 min later. For this, the samples were first 2 times diluted by pipetting 15 μl in 15 μl fresh growth medium in 96-well intermediate plates (Cat. Ref. PCR-96-FS-C, 96-well PCR Microplate, Axygen®) to then mix 15 μl of the diluted samples with 15 μl Griess reagent in the wells of a transparent, flat bottom 384-well plate (Cat. No. X^7001, Low Profile Microplate, Molecular Devices) that was measured spectrophotometrically at 540 nm (EnVision, Perkin Elmer®).
To get insights on the targeted metabolic pathway and to discriminate between compounds that specifically affect NH3 oxidation or that affect another pathway, three representative novel nitrification inhibitors (Examples 1, 5 and 6) were tested in the “ammonia vs hydroxylamine oxidation assay” in which NO2− production from NH3 was compared with NO2− production from NH2OH.

[3] = test system: Merelbeke soil; test: In soil nitrification inhibition assay, Merelbeke soil; settings: for inhibition of ammonium consumption in soil, in words: 50 μM, one week of treatment; for inhibition at 50 µM: soil, 168 h, 7 days, read-out: % Nitrification inhibition in soil (7 days of incubation, Merelbeke soil)
Method: Top layer (0 to 10 cm) soil samples were collected from different fields in Belgium (Merelbeke and Moorslede). Vegetation on the field trial was removed and samples were taken from different plots. All soil samples were mixed and sieved (mesh size 2.8 mm) to filter large debris and homogenize soil. The soil was stored at 5° C. in plastic containers covered with Saran foil to prevent changes in microbial community composition and to maintain the original soil water content. Soil water content was determined by drying 20 g soil for 48 h in a 60° C. oven and measuring weight before and after drying. Based on the soil water content (±20%), compound solutions were prepared so that addition of 200 μl compound and 200 μl NH4Cl solution would result in a final compound concentration of 50 μM and a final NH4^+ concentration of 10 mM. Per treatment, 5 small pots were filled with 20 g soil. Next, the soil was treated first with the respective compound solution and then with the NH4Cl solution. Per tray, positive (50 μM DMP) and negative controls (DMSO) were included. Pots were incubated at 21° C. (6 a.m. to 10 p.m. light) for 7 days. Demineralized water was added to the soil every 2 to 3 days to a soil weight of 20 g. In the end, each sample of 20 g soil was dissolved in 100 ml 1M KCl and shaken for 1 hour, followed by filtration through Whatmann® paper. The filtrate was used to measure pH, NH4^+ and NO3− concentrations. The nitrification inhibitors were applied in a nitrification inhibition assay using agricultural soil. In practice, ammonium with or without the new nitrification inhibitors was added to soil from a field in Merelbeke (Belgium). The ammonium level was measured at the start of the experiment and at the end of the experiment, after one week of incubation. A nitrification inhibition percentage was calculated by comparing the reduction in ammonium level with the nitrification inhibitor to the reduction in ammonium without the nitrification inhibitor. Ammonium was added to soil with a high nitrification activity and treated with the nitrification inhibitors (final concentration of 50 μM). […] This validates that the new nitrification inhibitors are effectively inhibiting ammonia oxidation by soil communities.

[4] = 72 h, 3 days, read-out: % Nitrification inhibition in soil (3 days of incubation, Moorslede soil) at 50 μM
[5] = 120 h, 5 days, read-out: % Nitrification inhibition in soil (5 days of incubation, Moorslede soil) at indicated concentration
[6] = 120 h, 20 μM, 5 days, read-out: % Nitrification inhibition in soil (5 days of incubation, Moorslede soil) at indicated concentration

## S=c1[nH]ccs1 [Example 24, 3H-1,3-thiazole-2-thione]
[1]; 20 μM, 5 days
  nitrification inhibition in soil, in words: effectively inhibits nitrification in soil
[1]; [4]
  inhibition at 50 µM: 40%
[1]; 120 h, 20 μM, 5 days, read-out: Average % nitrification inhibition in soil (5 days of incubation, Moorslede soil) at 20 μM
  inhibition at 20 µM: 14%

## S=C1NCCO1 [Example 7]
[1]; [4]
  inhibition at 50 µM: 100%
[1]; [5]
  inhibition at 5 µM: 8%
  inhibition at 50 µM: 38%
[1]; [6]
  inhibition at 20 µM: 32%

## CSc1nccs1 [Example 25, 2-(methylsulfanyI)-1,3-thiazole]
[1]; [4]
  inhibition at 50 µM: 73%
[1]; [5]
  inhibition at 5 µM: 3%
  inhibition at 50 µM: 30%
[1]; [6]
  inhibition at 20 µM: 14%

## CN(Cc1c(Cl)nc2sccn12)CN1CCSC1=S [Example 1, 3-[[(6-chloroimidazo[2,1-b][1,3]thiazol-5-yl)methyl-methylamino]methyl]-1,3-thiazolidine-2-thione]
[2]
  Nitrification from NH2OH (% compared to DMSO): 81%
  Nitrification from NH3 (% compared to DMSO): 12%
[3]
  inhibition of ammonium consumption in soil, in words: strongly inhibited the ammonium consumption
  inhibition at 50 µM: 60%

## CN(Cc1nc2ccccc2s1)CN1CCOC1=S [Example 5, 3-[[1,3-benzothiazol-2-ylmethyl(methyl)amino]methyl]-1,3-oxazolidine-2-thione]
[2]
  Nitrification from NH2OH (% compared to DMSO): 77%
  Nitrification from NH3 (% compared to DMSO): 17%
[3]
  inhibition of ammonium consumption in soil, in words: significant inhibition
  inhibition at 50 µM: 14%

Reference: patent publication US20230416168A1 (EUROCHEM ANTWERPEN, priority 2020, published 2023)
